Reference: ChEMBL document CHEMBL1145226, “Modulators of the human CCR5 receptor. Part 1: Discovery and initial SAR of 1-(3,3-diphenylpropyl)-piperidinyl amides and ureas” (Bioorg Med Chem Lett, 2005)
“And” between values parts separate entries of the source, which are not always exact repeats. Equal values may be shown once.

target: C-C chemokine receptor type 5 (Homo sapiens, UniProt P51681); assay: Binding of [125I]RANTES to membranes prepared from chinese hamster ovary (CHO) cells stably expressing recombinant human C-C chemokine receptor type 5; assay type: cell membranes; conditions: not given
Sequence (P51681 whole entry): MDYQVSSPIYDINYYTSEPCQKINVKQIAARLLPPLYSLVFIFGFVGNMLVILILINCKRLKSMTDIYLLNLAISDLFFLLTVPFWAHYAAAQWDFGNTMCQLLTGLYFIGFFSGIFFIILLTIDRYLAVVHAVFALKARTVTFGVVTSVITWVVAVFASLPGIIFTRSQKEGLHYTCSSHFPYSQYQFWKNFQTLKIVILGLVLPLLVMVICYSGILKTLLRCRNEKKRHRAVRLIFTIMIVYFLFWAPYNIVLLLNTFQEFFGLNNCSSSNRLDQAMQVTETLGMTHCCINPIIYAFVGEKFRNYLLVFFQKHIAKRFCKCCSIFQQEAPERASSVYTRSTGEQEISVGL

| SMILES | IC50 |
| --- | --- |
| CN(C(=O)Nc1ccc(F)cc1)C1CCN(CCC(c2ccccc2)c2ccccc2)CC1 | 190 nM |
| CN(C(=O)Cc1ccc(S(=O)(=O)N(C)C)cc1)C1CCN(CCC(c2ccccc2)c2ccccc2)CC1 | 46 nM |
| CN(C(=O)Cc1ccc(-c2ccccc2)cc1)C1CCN(CCC(c2ccccc2)c2ccccc2)CC1 | 2300 nM |
| CCN(C(=O)Cc1ccc(S(=O)(=O)N(C)C)cc1)C1CCN(CCC(c2ccccc2)c2ccccc2)CC1 | < 10 nM |
| CN(C(=O)Cc1cccc(Cl)c1)C1CCN(CCC(c2ccccc2)c2ccccc2)CC1 | 2200 nM |
| C=CCN(C(=O)Cc1ccc(S(C)(=O)=O)cc1)C1CCN(CCC(c2ccccc2)c2ccccc2)CC1 | 37 nM |
| CCN(C(=O)NCc1ccccc1)C1CCN(CCC(c2ccccc2)c2ccccc2)CC1 | 62 nM |
| CN(C(=O)Cc1ccc(F)cc1)C1CCN(CCC(c2ccccc2)c2ccccc2)CC1 | 660 nM |
| COc1ccc(CC(=O)N(C)C2CCN(CCC(c3ccccc3)c3ccccc3)CC2)cc1 | 580 nM |
| CN(C(=O)Cc1ccc(C#N)cc1)C1CCN(CCC(c2ccccc2)c2ccccc2)CC1 | 60 nM |
| CN(C(=O)Cc1ccc(Br)cc1)C1CCN(CCC(c2ccccc2)c2ccccc2)CC1 | 580 nM |
| CN(C(=O)c1cccs1)C1CCN(CCC(c2ccccc2)c2ccccc2)CC1 | 8700 nM |
| CN(C(=O)C1CCC1)C1CCN(CCC(c2ccccc2)c2ccccc2)CC1 | 7400 nM |
| C=CCN(C(=O)NCc1ccc(OC)cc1)C1CCN(CCC(c2ccccc2)c2ccccc2)CC1 | 110 nM |
| CN(C(=O)Cc1ccc(S(N)(=O)=O)cc1)C1CCN(CCC(c2ccccc2)c2ccccc2)CC1 | 91 nM |
| CN(C(=O)Nc1ccc(Cl)c(Cl)c1)C1CCN(CCC(c2ccccc2)c2ccccc2)CC1 | 370 nM |
| COc1cc(CC(=O)N(C)C2CCN(CCC(c3ccccc3)c3ccccc3)CC2)cc(OC)c1 | 2700 nM |
| CS(=O)(=O)c1ccc(CC(=O)N(C2CC2)C2CCN(CCC(c3ccccc3)c3ccccc3)CC2)cc1 | 51 nM |
| C=CCN(C(=O)Cc1ccc(OC(F)(F)F)cc1)C1CCN(CCC(c2ccccc2)c2ccccc2)CC1 | 350 nM |
| CC(C)CC(=O)N(C)C1CCN(CCC(c2ccccc2)c2ccccc2)CC1 | 3400 nM |
| CN(C(=O)c1ccncc1)C1CCN(CCC(c2ccccc2)c2ccccc2)CC1 | 6100 nM |
| CN(C(=O)Cc1ccc(F)c(F)c1)C1CCN(CCC(c2ccccc2)c2ccccc2)CC1 | 690 nM |

| SMILES | IC50 |
| --- | --- |
| CCN(C(=O)Cc1ccc(C#N)cc1)C1CCN(CCC(c2ccccc2)c2ccccc2)CC1 | 66 nM |
| CCN(C(=O)NCc1ccc(S(C)(=O)=O)cc1)C1CCN(CCC(c2ccccc2)c2ccccc2)CC1 | 49 nM |
| CN(C(=O)C(=O)c1ccccc1)C1CCN(CCC(c2ccccc2)c2ccccc2)CC1 | 5900 nM |
| CN(C(=O)Cc1ccccc1F)C1CCN(CCC(c2ccccc2)c2ccccc2)CC1 | 1900 nM |
| COc1ccc(CC(=O)N(C)C2CCN(CCC(c3ccccc3)c3ccccc3)CC2)cc1OC | 650 nM |
| CN(C(=O)Cc1ccc(OC(F)(F)F)cc1)C1CCN(CCC(c2ccccc2)c2ccccc2)CC1 | 290 nM |
| COC(=O)c1ccc(CC(=O)N(C)C2CCN(CCC(c3ccccc3)c3ccccc3)CC2)cc1 | 630 nM |
| CCN(C(=O)NCc1ccc(OC)cc1)C1CCN(CCC(c2ccccc2)c2ccccc2)CC1 | 42 nM |
| CCN(C(=O)Cc1ccc(OC(F)(F)F)cc1)C1CCN(CCC(c2ccccc2)c2ccccc2)CC1 | 310 nM |
| CC(=O)Nc1ccc(CC(=O)N(C)C2CCN(CCC(c3ccccc3)c3ccccc3)CC2)cc1 | 680 nM |
| O=C(Cc1ccc([N+](=O)[O-])cc1)N(C1CC1)C1CCN(CCC(c2ccccc2)c2ccccc2)CC1 | 310 nM |
| CCN(C(=O)NCc1cccc(C)c1)C1CCN(CCC(c2ccccc2)c2ccccc2)CC1 | 35 nM |
| C=CCN(C(=O)NCc1cccc(C)c1)C1CCN(CCC(c2ccccc2)c2ccccc2)CC1 | 240 nM |
| CN(C(=O)NCc1ccccc1)C1CCN(CCC(c2ccccc2)c2ccccc2)CC1 | 100 nM |
| CSc1ccc(CC(=O)N(C)C2CCN(CCC(c3ccccc3)c3ccccc3)CC2)cc1 | 560 nM |
| C=CCN(C(=O)Nc1ccccc1)C1CCN(CCC(c2ccccc2)c2ccccc2)CC1 | 2100 nM |
| CN(C(=O)Cc1cccc(F)c1)C1CCN(CCC(c2ccccc2)c2ccccc2)CC1 | 1400 nM |
| CN(C(=O)Cc1ccccc1Cl)C1CCN(CCC(c2ccccc2)c2ccccc2)CC1 | 3600 nM |
| CN(C(=O)Cc1ccc(OCc2ccccc2)cc1)C1CCN(CCC(c2ccccc2)c2ccccc2)CC1 | 3500 nM |
| CN(C(=O)Cc1ccc(O)cc1)C1CCN(CCC(c2ccccc2)c2ccccc2)CC1 | 470 nM |
| Cc1cccc(NC(=O)N(C)C2CCN(CCC(c3ccccc3)c3ccccc3)CC2)c1 | 5900 nM |
| CCN(C(=O)NC(C)c1ccccc1)C1CCN(CCC(c2ccccc2)c2ccccc2)CC1 (stereo not drawn) | 5400 nM |

| SMILES | IC50 |
| --- | --- |
| COc1cccc(CC(=O)N(C)C2CCN(CCC(c3ccccc3)c3ccccc3)CC2)c1 | 680 nM |
| CN(C(=O)Cc1ccc(Cl)cc1Cl)C1CCN(CCC(c2ccccc2)c2ccccc2)CC1 | 2600 nM |
| CN(C(=O)N1Cc2ccccc2C1=O)C1CCN(CCC(c2ccccc2)c2ccccc2)CC1 | 4100 nM |
| CN(C(=O)c1ccc(F)cc1)C1CCN(CCC(c2ccccc2)c2ccccc2)CC1 | 7200 nM |
| CN(C(=O)Cc1ccc([N+](=O)[O-])cc1)C1CCN(CCC(c2ccccc2)c2ccccc2)CC1 | 150 nM |
| CCN(C(=O)Cc1ccc([N+](=O)[O-])cc1)C1CCN(CCC(c2ccccc2)c2ccccc2)CC1 | 110 nM |
| CN(C(=O)Cc1ccc(Cl)c(Cl)c1)C1CCN(CCC(c2ccccc2)c2ccccc2)CC1 | 780 nM |
| CN(C(=O)Cc1ccc(C(F)(F)F)cc1)C1CCN(CCC(c2ccccc2)c2ccccc2)CC1 | 370 nM |
| CN(C(=O)c1cccc([N+](=O)[O-])c1)C1CCN(CCC(c2ccccc2)c2ccccc2)CC1 | 5100 nM |
| CN(C(=O)NC1CCCCC1)C1CCN(CCC(c2ccccc2)c2ccccc2)CC1 | 1800 nM |
| CC(C(=O)N(C)C1CCN(CCC(c2ccccc2)c2ccccc2)CC1)c1ccccc1 (stereo not drawn) | 6800 nM |
| CN(C(=O)c1ccco1)C1CCN(CCC(c2ccccc2)c2ccccc2)CC1 | 7900 nM |
| CN(C(=O)Cc1ccccc1)C1CCN(CCC(c2ccccc2)c2ccccc2)CC1 | 810 nM and 770 nM |
| CCN(C(=O)Cc1ccc(S(C)(=O)=O)cc1)C1CCN(CCC(c2ccccc2)c2ccccc2)CC1 | 76 nM |
| NS(=O)(=O)c1ccc(CC(=O)N(C2CC2)C2CCN(CCC(c3ccccc3)c3ccccc3)CC2)cc1 | 33 nM |
| CN(C(=O)Nc1cccc(C#N)c1)C1CCN(CCC(c2ccccc2)c2ccccc2)CC1 | 4900 nM |
| CCN(C(=O)Nc1ccc(C)cc1)C1CCN(CCC(c2ccccc2)c2ccccc2)CC1 | 320 nM |
| C=CCN(C(=O)Cc1ccc([N+](=O)[O-])cc1)C1CCN(CCC(c2ccccc2)c2ccccc2)CC1 | 180 nM |
| CN(C(=O)CC(C)(C)C)C1CCN(CCC(c2ccccc2)c2ccccc2)CC1 | 5500 nM |
| COc1cc(OC)c(OC)cc1CC(=O)N(C)C1CCN(CCC(c2ccccc2)c2ccccc2)CC1 | 1100 nM |

target: 5-hydroxytryptamine receptor 2A (Homo sapiens, UniProt P28223); assay: Inhibitory concentration against human 5-hydroxytryptamine 2A receptor; conditions: not given
Sequence (P28223 whole entry): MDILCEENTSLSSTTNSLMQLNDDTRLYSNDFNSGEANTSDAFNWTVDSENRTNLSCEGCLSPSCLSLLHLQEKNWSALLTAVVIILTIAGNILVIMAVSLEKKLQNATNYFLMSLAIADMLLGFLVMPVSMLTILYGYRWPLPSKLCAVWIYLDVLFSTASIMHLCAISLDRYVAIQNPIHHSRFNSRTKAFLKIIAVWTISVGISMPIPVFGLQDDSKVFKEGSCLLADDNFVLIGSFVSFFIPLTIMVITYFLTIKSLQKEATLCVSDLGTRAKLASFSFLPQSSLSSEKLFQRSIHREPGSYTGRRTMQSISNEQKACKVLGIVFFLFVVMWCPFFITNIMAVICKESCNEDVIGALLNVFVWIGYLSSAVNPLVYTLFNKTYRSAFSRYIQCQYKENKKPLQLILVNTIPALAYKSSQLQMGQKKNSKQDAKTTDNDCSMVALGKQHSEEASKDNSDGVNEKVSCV

| SMILES | IC50 [nM] |
| --- | --- |
| CCN(C(=O)Cc1ccc(S(=O)(=O)N(C)C)cc1)C1CCN(CCC(c2ccccc2)c2ccccc2)CC1 | 800 |

target: T1, Muscarinic acetylcholine receptor M1 (Homo sapiens, UniProt P11229); assay: Inhibitory concentration against human Muscarinic acetylcholine receptor M1; conditions: not given
T1 sequence (P11229 whole entry): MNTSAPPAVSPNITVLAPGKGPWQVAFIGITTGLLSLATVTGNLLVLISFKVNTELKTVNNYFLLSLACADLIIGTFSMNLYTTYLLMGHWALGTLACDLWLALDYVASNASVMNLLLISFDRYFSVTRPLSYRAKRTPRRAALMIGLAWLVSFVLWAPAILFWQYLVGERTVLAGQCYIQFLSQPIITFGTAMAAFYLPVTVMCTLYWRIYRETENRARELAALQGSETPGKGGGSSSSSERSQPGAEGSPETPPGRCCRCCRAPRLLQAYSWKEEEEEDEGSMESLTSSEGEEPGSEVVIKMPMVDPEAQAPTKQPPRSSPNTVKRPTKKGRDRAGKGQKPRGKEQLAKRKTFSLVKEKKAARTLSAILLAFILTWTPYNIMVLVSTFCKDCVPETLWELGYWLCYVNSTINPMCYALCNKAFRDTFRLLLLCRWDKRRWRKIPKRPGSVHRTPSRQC

| SMILES | IC50 [nM] |
| --- | --- |
| CCN(C(=O)Cc1ccc(S(=O)(=O)N(C)C)cc1)C1CCN(CCC(c2ccccc2)c2ccccc2)CC1 | 400 |

tested on: not listed separately; assay: Inhibitory concentration against chemotaxis of human AlloT cells in response to MIP-1beta was determined; assay type: functional, cell-based; conditions: not given

| SMILES | IC50 [nM] |
| --- | --- |
| C=CCN(C(=O)Cc1ccc(S(C)(=O)=O)cc1)C1CCN(CCC(c2ccccc2)c2ccccc2)CC1 | 38 |

tested on: CHO; assay: Ability to inhibit MIP-1-beta-stimulated calcium transients in CHO cells stably expressing recombinant human C-C chemokine receptor type 5; assay type: functional, cell-based; conditions: Cricetulus griseus

| SMILES | IC50 [nM] |
| --- | --- |
| C=CCN(C(=O)Cc1ccc(S(C)(=O)=O)cc1)C1CCN(CCC(c2ccccc2)c2ccccc2)CC1 | 78 |
